# In patent US11109593B2, “Isoxazolin-5-one derivative and herbicide containing same as active ingredient” (HOKKO CHEMICAL INDUSTRY CO., LTD., priority 2017, dated 2021):
# Key:
# Format in all cases: in vivo
# [1] = tested on: Scirpus juncoides; experiment: Test Example 1: herbicidal effect test by treatment of rice paddy soil (immediately after seeding); details: 120 g/10a active ingredient, dry weight vs untreated area, 14 days after treatment
# How it was run: (§1)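 Paddy soil in pots with compound fertilizer, puddled; 30 seeds per species sown at 0–1 cm, flooded ~3 cm, greenhouse. Water-diluted emulsions dropped onto water immediately after seeding at 120 g active ingredient per 10 ares, duplicate. Herbicidal rate (%) from plant dry weight versus untreated, 14 days after treatment.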
# [2] = tested on: broad leaf weeds (Lindernia pyxidaria and Monochoria vaginalis); experiment: as above; details: 120 g/10a active ingredient, dry weight vs untreated area, 14 days after treatment
# How it was run: as §1
# [3] = tested on: Echinochloa crus-galli; experiment: as above; details: 120 g/10a active ingredient, dry weight vs untreated area, 14 days after treatment
# How it was run: as §1
# [4] = tested on: Amaranthus viridis; experiment: Test Example 4: herbicidal effect test by treatment of leave and stem in dry field farming (seven days after seeding); details: 120 g/10a active ingredient; emulsion sprayed seven days after seeding; evaluated 14 days after treatment
# How it was run: (§2)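 Duplicate pots were scored 14 days post-spray by dry weight, herbicidal rate = {1 − treated/untreated average dry weight} × 100. The water-diluted emulsion, equivalent to 120 g active ingredient per 10 ares in 100 L, was applied seven days after sowing 20 seeds each into the upper 1 cm of alluvial soil.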
# [5] = tested on: Echinochloa crus-galli; experiment: as above; details: 120 g/10a active ingredient; emulsion sprayed seven days after seeding; evaluated 14 days after treatment
# How it was run: as §2
# [6] = tested on: southern crabgrass; experiment: as above; details: 120 g/10a active ingredient; emulsion sprayed seven days after seeding; evaluated 14 days after treatment
# How it was run: as §2
# [7] = tested on: Chenopodium album; experiment: as above; details: 120 g/10a active ingredient; emulsion sprayed seven days after seeding; evaluated 14 days after treatment
# How it was run: as §2
# [8] = tested on: Scirpus juncoides; experiment: Test Example 2: herbicidal effect test by treatment during growing period in paddy rice cultivation (seven days after seeding); details: 120 g/10a active ingredient, assessed 14 days after treatment, dry weight vs untreated area
# How it was run: (§3)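 Post-emergence paddy water application: compounds were formulated as emulsions, diluted and dropped into flooded pots seven days after sowing at a rate equivalent to 120 g per 10 ares. Efficacy was taken as dry-weight reduction relative to untreated controls after 14 days.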
# [9] = tested on: broad leaf weeds (Lindernia pyxidaria and Monochoria vaginalis); experiment: as above; details: 120 g/10a active ingredient, assessed 14 days after treatment, dry weight vs untreated area
# How it was run: as §3
# [10] = tested on: Echinochloa crus-galli; experiment: as above; details: 120 g/10a active ingredient, assessed 14 days after treatment, dry weight vs untreated area
# How it was run: as §3
# [11] = tested on: Amaranthus viridis; experiment: Test Example 3: herbicidal effect test by treatment of dry field farming soil (one day after seeding); details: 120 g/10a active ingredient, evaluated 14 days after treatment
# How it was run: (§4)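 Dry-field alluvium pots; weed seeds incorporated in top 1 cm; soil spray of diluted emulsion 1 d after seeding, 120 g a.i./10 a in 100 L/10 a. Readout: % reduction of dry weight vs untreated, day 14, duplicates.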
# [12] = tested on: Echinochloa crus-galli; experiment: as above; details: 120 g/10a active ingredient, evaluated 14 days after treatment
# How it was run: as §4
# [13] = tested on: southern crabgrass; experiment: as above; details: 120 g/10a active ingredient, evaluated 14 days after treatment
# How it was run: as §4
# [14] = tested on: Chenopodium album; experiment: as above; details: 120 g/10a active ingredient, evaluated 14 days after treatment
# How it was run: as §4
SMILES,Herbicidal rate (%) Scirpus juncoides [1] [%],Herbicidal rate (%) Lindernia pyxidaria [2] [%],Herbicidal rate (%) Monochoria vaginalis [2] [%],Herbicidal rate (%) Echinochloa crus-galli [3] [%],"herbicidal effect (herbicidal rate), Amaranthus viridis [4] [%]","herbicidal effect (herbicidal rate), Echinochloa crus-galli [5] [%]","herbicidal effect (herbicidal rate), southern crabgrass [6] [%]","herbicidal effect (herbicidal rate), Chenopodium album [7] [%]",Herbicidal rate (%) Scirpus juncoides [8] [%],Herbicidal rate (%) Lindernia pyxidaria [9] [%],Herbicidal rate (%) Monochoria vaginalis [9] [%],Herbicidal rate (%) Echinochloa crus-galli [10] [%],"herbicidal rate, Amaranthus viridis [11] [%]","herbicidal rate, Echinochloa crus-galli [12] [%]","herbicidal rate, southern crabgrass [13] [%]","herbicidal rate, Chenopodium album [14] [%]"
Cc1c(Cc2ccccc2N(C(=O)Oc2ccccc2)S(=O)(=O)C(F)(F)F)c(=O)on1C(C)c1ccccc1 (centres unmarked) [Compound 1-766],90,90,90,90,40,90,90,40,90,90,90,90,90,90,90,90
Cc1c(Cc2cc(F)ccc2N(S(=O)(=O)C(F)(F)F)S(=O)(=O)C(F)(F)F)c(=O)on1CC(C)C [Compound 1-29],90,90,90,100,60,60,40,0,90,80,90,100,40,70,70,40
CCC(=O)N(c1ccccc1Cc1c(C)n(CC(C)(C)C)oc1=O)S(=O)(=O)C(F)(F)F [Compound 1-318],90,90,90,90,40,90,90,40,90,90,90,90,90,90,90,90
CCC(C)n1oc(=O)c(Cc2ccccc2N(C(=O)OC(C)C)S(=O)(=O)C(F)(F)F)c1C (centres unmarked) [Compound 1-642],90,90,90,90,40,90,90,40,90,90,90,90,90,90,90,90
Cc1c(Cc2ccccc2N(C(=O)C2CCCCC2)S(=O)(=O)C(F)(F)F)c(=O)on1C(C)(C)C [Compound 1-431],90,90,90,90,40,90,90,40,90,90,90,90,90,90,90,90
